Tests used:
[1] = system: NCI-H226 (NSC lung cancer); experiment: NCI 60-cell one-dose antiproliferative screen; type: cell-based, human; details: one dose 10 μM
EKVX (NSC lung cancer) = experiment: NCI 60-cell one-dose antiproliferative screen; type: cell-based, human; details: one dose 10 μM
HT29 (colon cancer) = experiment: NCI 60-cell one-dose antiproliferative screen; type: cell-based, human; details: one dose 10 μM
SK-MEL-2 (melanoma) = experiment: NCI 60-cell one-dose antiproliferative screen; type: cell-based, human; details: one dose 10 μM
UACC-62 (melanoma) = experiment: NCI 60-cell one-dose antiproliferative screen; type: cell-based, human; details: one dose 10 μM
OVCAR-5 (ovarian cancer) = experiment: NCI 60-cell one-dose antiproliferative screen; type: cell-based, human; details: one dose 10 μM
MALME-3M (melanoma) = experiment: NCI 60-cell one-dose antiproliferative screen; type: cell-based, human; details: one dose 10 μM
HCC-2998 (colon cancer) = experiment: NCI 60-cell one-dose antiproliferative screen; type: cell-based, human; details: one dose 10 μM
[2] = system: NCI-H23 (NSC lung cancer); experiment: NCI 60-cell one-dose antiproliferative screen; type: cell-based, human; details: one dose 10 μM
[3] = system: NCI-H522 (NSC lung cancer); experiment: NCI 60-cell one-dose antiproliferative screen; type: cell-based, human; details: one dose 10 μM
[4] = system: NCI-H322M (NSC lung cancer); experiment: NCI 60-cell one-dose antiproliferative screen; type: cell-based, human; details: one dose 10 μM
A498 (renal cancer) = experiment: NCI 60-cell one-dose antiproliferative screen; type: cell-based, human; details: one dose 10 μM
[5] = system: A549/ATCC (NSC lung cancer); experiment: NCI 60-cell one-dose antiproliferative screen; type: cell-based, human; details: one dose 10 μM
SF-295 (CNS cancer) = experiment: NCI 60-cell one-dose antiproliferative screen; type: cell-based, human; details: one dose 10 μM
SNB-75 (CNS cancer) = experiment: NCI 60-cell one-dose antiproliferative screen; type: cell-based, human; details: one dose 10 μM
[6] = system: MDA-MB-468 (breast cancer); experiment: NCI 60-cell one-dose antiproliferative screen; type: cell-based, human; details: one dose 10 μM
ACHN (renal cancer) = experiment: NCI 60-cell one-dose antiproliferative screen; type: cell-based, human; details: one dose 10 μM
HCT-15 (colon cancer) = experiment: NCI 60-cell one-dose antiproliferative screen; type: cell-based, human; details: one dose 10 μM
LOX IMIV (melanoma) = experiment: NCI 60-cell one-dose antiproliferative screen; type: cell-based, human; details: one dose 10 μM
HCT-116 (colon cancer) = experiment: NCI 60-cell one-dose antiproliferative screen; type: cell-based, human; details: one dose 10 μM
COLO-205 (colon cancer) = experiment: NCI 60-cell one-dose antiproliferative screen; type: cell-based, human; details: one dose 10 μM
PC-3 (prostate cancer) = experiment: NCI 60-cell one-dose antiproliferative screen; type: cell-based, human; details: one dose 10 μM
KM12 (colon cancer) = experiment: NCI 60-cell one-dose antiproliferative screen; type: cell-based, human; details: one dose 10 μM
[7] = system: NCI/ADR-RES (ovarian cancer); experiment: NCI 60-cell one-dose antiproliferative screen; type: cell-based, human; details: one dose 10 μM
DU-145 (prostate cancer) = experiment: NCI 60-cell one-dose antiproliferative screen; type: cell-based, human; details: one dose 10 μM
M14 (melanoma) = experiment: NCI 60-cell one-dose antiproliferative screen; type: cell-based, human; details: one dose 10 μM
U251 (CNS cancer) = experiment: NCI 60-cell one-dose antiproliferative screen; type: cell-based, human; details: one dose 10 μM
SW-620 (colon cancer) = experiment: NCI 60-cell one-dose antiproliferative screen; type: cell-based, human; details: one dose 10 μM
UACC-257 (melanoma) = experiment: NCI 60-cell one-dose antiproliferative screen; type: cell-based, human; details: one dose 10 μM
SK-OV-3 (ovarian cancer) = experiment: NCI 60-cell one-dose antiproliferative screen; type: cell-based, human; details: one dose 10 μM
SF-268 (CNS cancer) = experiment: NCI 60-cell one-dose antiproliferative screen; type: cell-based, human; details: one dose 10 μM
CAKI-1 (renal cancer) = experiment: NCI 60-cell one-dose antiproliferative screen; type: cell-based, human; details: one dose 10 μM
HOP-92 (NSC lung cancer) = experiment: NCI 60-cell one-dose antiproliferative screen; type: cell-based, human; details: one dose 10 μM
[8] = system: 60 human tumor cell lines; experiment: NCI 60-cell one-dose antiproliferative screen, whole panel; type: cell-based; details: Homo sapiens, 60 cell, read-out: Mean inhibition (mean GI%)
CCRF-CEM (leukemia) = experiment: NCI 60-cell one-dose antiproliferative screen; type: cell-based, human; details: one dose 10 μM
RXF 393 (renal cancer) = experiment: NCI 60-cell one-dose antiproliferative screen; type: cell-based, human; details: one dose 10 μM
T-47D (breast cancer) = experiment: NCI 60-cell one-dose antiproliferative screen; type: cell-based, human; details: one dose 10 μM
[9] = system: NCI-H460 (NSC lung cancer); experiment: NCI 60-cell one-dose antiproliferative screen; type: cell-based, human; details: one dose 10 μM
OVCAR-4 (ovarian cancer) = experiment: NCI 60-cell one-dose antiproliferative screen; type: cell-based, human; details: one dose 10 μM
SF-539 (CNS cancer) = experiment: NCI 60-cell one-dose antiproliferative screen; type: cell-based, human; details: one dose 10 μM
TK-10 (renal cancer) = experiment: NCI 60-cell one-dose antiproliferative screen; type: cell-based, human; details: one dose 10 μM
RPMI-8226 (leukemia) = experiment: NCI 60-cell one-dose antiproliferative screen; type: cell-based, human; details: one dose 10 μM
OVCAR-8 (ovarian cancer) = experiment: NCI 60-cell one-dose antiproliferative screen; type: cell-based, human; details: one dose 10 μM
IGROV1 (ovarian cancer) = experiment: NCI 60-cell one-dose antiproliferative screen; type: cell-based, human; details: one dose 10 μM
786-0 (renal cancer) = experiment: NCI 60-cell one-dose antiproliferative screen; type: cell-based, human; details: one dose 10 μM
HS 578T (breast cancer) = experiment: NCI 60-cell one-dose antiproliferative screen; type: cell-based, human; details: one dose 10 μM
SK-MEL-28 (melanoma) = experiment: NCI 60-cell one-dose antiproliferative screen; type: cell-based, human; details: one dose 10 μM
MCF7 (breast cancer) = experiment: NCI 60-cell one-dose antiproliferative screen; type: cell-based, human; details: one dose 10 μM
SNB-19 (CNS cancer) = experiment: NCI 60-cell one-dose antiproliferative screen; type: cell-based, human; details: one dose 10 μM
HOP-62 (NSC lung cancer) = experiment: NCI 60-cell one-dose antiproliferative screen; type: cell-based, human; details: one dose 10 μM
SN12C (renal cancer) = experiment: NCI 60-cell one-dose antiproliferative screen; type: cell-based, human; details: one dose 10 μM
[10] = system: MDA-MB-231/ATCC (breast cancer); experiment: NCI 60-cell one-dose antiproliferative screen; type: cell-based, human; details: one dose 10 μM
UO-31 (renal cancer) = experiment: NCI 60-cell one-dose antiproliferative screen; type: cell-based, human; details: one dose 10 μM
OVCAR-3 (ovarian cancer) = experiment: NCI 60-cell one-dose antiproliferative screen; type: cell-based, human; details: one dose 10 μM
MDA-MB-435 (melanoma) = experiment: NCI 60-cell one-dose antiproliferative screen; type: cell-based, human; details: one dose 10 μM

`COc1ccc(-c2nnc3ccc(NN=Cc4ccccc4)nn23)cc1` [Compound 4e, 6-(2-Benzylidenehydrazinyl)-3-(4-methoxyphenyl)-[1,2,4]triazolo[4,3-b]pyridazine] was tested, and the GI% [1] was 42.42%, the GI% (EKVX (NSC lung cancer)) was “— (— GI% is below 15%)” and the GI% (HT29 (colon cancer)) was “— (— GI% is below 15%)”. The GI% (SK-MEL-2 (melanoma)) was “— (— GI% is below 15%)”, the GI% (UACC-62 (melanoma)) was “— (— GI% is below 15%)” and the GI% (OVCAR-5 (ovarian cancer)) was “— (— GI% is below 15%)”. The GI% (MALME-3M (melanoma)) was “— (— GI% is below 15%)”, the GI% (HCC-2998 (colon cancer)) was “— (— GI% is below 15%)” and the GI% [2] was “— (— GI% is below 15%)”. The GI% [3] was “— (— GI% is below 15%)”, the GI% [4] was “— (— GI% is below 15%)” and the GI% (A498 (renal cancer)) was “— (— GI% is below 15%)”. The GI% [5] was 21.90%, the GI% (SF-295 (CNS cancer)) was “— (— GI% is below 15%)” and the GI% (SNB-75 (CNS cancer)) was 62.97%. The GI% [6] was “— (— GI% is below 15%)”, the GI% (ACHN (renal cancer)) was “— (— GI% is below 15%)” and the GI% (HCT-15 (colon cancer)) was “— (— GI% is below 15%)”. The GI% (LOX IMIV (melanoma)) was 29.87%, the GI% (HCT-116 (colon cancer)) was “— (— GI% is below 15%)” and the GI% (COLO-205 (colon cancer)) was “— (— GI% is below 15%)”. The GI% (PC-3 (prostate cancer)) was “— (— GI% is below 15%)”, the GI% (KM12 (colon cancer)) was “— (— GI% is below 15%)” and the GI% [7] was 30.10%. The GI% (DU-145 (prostate cancer)) was “— (— GI% is below 15%)”, the GI% (M14 (melanoma)) was “— (— GI% is below 15%)” and the GI% (U251 (CNS cancer)) was 22.16%. For the same compound, the GI% (SW-620 (colon cancer)) was “— (— GI% is below 15%)”, the GI% (UACC-257 (melanoma)) was “— (— GI% is below 15%)” and the GI% (SK-OV-3 (ovarian cancer)) was “— (— GI% is below 15%)”. The GI% (SF-268 (CNS cancer)) was “— (— GI% is below 15%)”, the GI% (CAKI-1 (renal cancer)) was “— (— GI% is below 15%)” and the GI% (HOP-92 (NSC lung cancer)) was 29.15%. The inhibition at 10 µM [8] was 7.15%, the GI% (CCRF-CEM (leukemia)) was “— (— GI% is below 15%)” and the GI% (RXF 393 (renal cancer)) was “— (— GI% is below 15%)”. The GI% (T-47D (breast cancer)) was “— (— GI% is below 15%)”, the GI% [9] was “— (— GI% is below 15%)” and the GI% (OVCAR-4 (ovarian cancer)) was “— (— GI% is below 15%)”. For the same compound, the GI% (SF-539 (CNS cancer)) was 17.17%, the GI% (TK-10 (renal cancer)) was “— (— GI% is below 15%)” and the GI% (RPMI-8226 (leukemia)) was “— (— GI% is below 15%)”. For the same compound, the GI% (OVCAR-8 (ovarian cancer)) was 34.25%, the GI% (IGROV1 (ovarian cancer)) was “— (— GI% is below 15%)” and the GI% (786-0 (renal cancer)) was “— (— GI% is below 15%)”. For the same compound, the GI% (HS 578T (breast cancer)) was 17.35%, the GI% (SK-MEL-28 (melanoma)) was “— (— GI% is below 15%)” and the GI% (MCF7 (breast cancer)) was 28.54%. The GI% (SNB-19 (CNS cancer)) was 17.10%, the GI% (HOP-62 (NSC lung cancer)) was “— (— GI% is below 15%)” and the GI% (SN12C (renal cancer)) was “— (— GI% is below 15%)”. For the same compound, the GI% [10] was 34.41%, the GI% (UO-31 (renal cancer)) was “— (— GI% is below 15%)” and the GI% (OVCAR-3 (ovarian cancer)) was “— (— GI% is below 15%)”. The GI% (MDA-MB-435 (melanoma)) was “— (— GI% is below 15%)”.
